Measurements taken from the supplement of paper PMC10307832.

How the values were obtained:
Assay in all cases: relative viability (nuclei count vs DMSO), 5 days (fraction); higher = more cells survive
NCI-H358 = tested on: NCI-H358
How it was run: (§1)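 The day after seeding in 1536-well plates, lung cancer cell lines were treated by pin tool with a single drug, or with a fixed anchor-drug dose together with five library-drug doses (not always all listed) in √10 steps. After 5 days, a combined fix-and-stain solution (final 0.05% Triton X-100, 1% formaldehyde, 1 ug/ml Hoechst) was added. Nuclei counted on 4× images gave relative viability as treated counts over vehicle counts, reported as the median of duplicate plates.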

NCI-H1792 = tested on: NCI-H1792
How it was run: as §1

NCI-H1755 = tested on: NCI-H1755
How it was run: as §1

COR-L23 = tested on: COR-L23
How it was run: as §1

PC-14 = tested on: PC-14
How it was run: as §1

LC-2-ad = tested on: LC-2-ad
How it was run: as §1

NCI-H2023 = tested on: NCI-H2023
How it was run: as §1

NCI-H1915 = tested on: NCI-H1915
How it was run: as §1

NCI-H1395 = tested on: NCI-H1395
How it was run: as §1

NCI-H650 = tested on: NCI-H650
How it was run: as §1

NCI-H2342 = tested on: NCI-H2342
How it was run: as §1

HCC-366 = tested on: HCC-366
How it was run: as §1

EMC-BAC-2 = tested on: EMC-BAC-2
How it was run: as §1

HCC-15 = tested on: HCC-15
How it was run: as §1

NCI-H1437 = tested on: NCI-H1437
How it was run: as §1

SK-MES-1 = tested on: SK-MES-1
How it was run: as §1

NCI-H23 = tested on: NCI-H23
How it was run: as §1

NCI-H2009 = tested on: NCI-H2009
How it was run: as §1

COR-L 105 = tested on: COR-L 105
How it was run: as §1

NCI-H2347 = tested on: NCI-H2347
How it was run: as §1

201T = tested on: 201T
How it was run: as §1

NCI-H1793 = tested on: NCI-H1793
How it was run: as §1

Cc1csc(=NC2CCCCC2)n1/N=C/c1ccc(O)c(O)c1O [MIM1] + CC(=O)Nc1cccc(-n2c(=O)n(C3CC3)c(=O)c3c(Nc4ccc(I)cc4F)n(C)c(=O)c(C)c32)c1 [Trametinib] (partner 0.02 µM)
relative viability (NCI-H358; first compound 0.2 µM): 0.149 | relative viability (NCI-H358; first compound 0.6325 µM): 0.15 | relative viability (NCI-H358; first compound 2 µM): 0.119 | relative viability (NCI-H358; first compound 6.325 µM): 0.116 | relative viability (NCI-H358; first compound 20 µM): 0.133 | relative viability (NCI-H1792; first compound 0.2 µM): 0.4 | relative viability (NCI-H1792; first compound 0.6325 µM): 0.376 | relative viability (NCI-H1792; first compound 2 µM): 0.456 | relative viability (NCI-H1792; first compound 6.325 µM): 0.384 | relative viability (NCI-H1792; first compound 20 µM): 0.325 | relative viability (NCI-H1755; first compound 0.2 µM): 0.719 | relative viability (NCI-H1755; first compound 0.6325 µM): 0.778 | relative viability (NCI-H1755; first compound 2 µM): 0.808 | relative viability (NCI-H1755; first compound 6.325 µM): 0.7 | relative viability (NCI-H1755; first compound 20 µM): 0.382 | relative viability (COR-L23; first compound 0.2 µM): 0.509 | relative viability (COR-L23; first compound 0.6325 µM): 0.619 | relative viability (COR-L23; first compound 2 µM): 0.571 | relative viability (COR-L23; first compound 6.325 µM): 0.388 | relative viability (COR-L23; first compound 20 µM): 0.306 | relative viability (PC-14; first compound 0.2 µM): 0.663 | relative viability (PC-14; first compound 0.6325 µM): 0.882 | relative viability (PC-14; first compound 2 µM): 0.479 | relative viability (PC-14; first compound 6.325 µM): 0.621 | relative viability (PC-14; first compound 20 µM): 0.17 | relative viability (LC-2-ad; first compound 0.2 µM): 0.904 | relative viability (LC-2-ad; first compound 0.6325 µM): 0.941 | relative viability (LC-2-ad; first compound 2 µM): 0.913 | relative viability (LC-2-ad; first compound 6.325 µM): 0.529 | relative viability (LC-2-ad; first compound 20 µM): 0.739 | relative viability (NCI-H2023; first compound 0.2 µM): 0.505 | relative viability (NCI-H2023; first compound 0.6325 µM): 0.562 | relative viability (NCI-H2023; first compound 2 µM): 0.52 | relative viability (NCI-H2023; first compound 6.325 µM): 0.247 | relative viability (NCI-H2023; first compound 20 µM): 0.0881 | relative viability (NCI-H1915; first compound 0.2 µM): 0.31 | relative viability (NCI-H1915; first compound 0.6325 µM): 0.27 | relative viability (NCI-H1915; first compound 2 µM): 0.279 | relative viability (NCI-H1915; first compound 6.325 µM): 0.314 | relative viability (NCI-H1915; first compound 20 µM): 0.357 | relative viability (NCI-H1395; first compound 0.2 µM): 0.976 | relative viability (NCI-H1395; first compound 0.6325 µM): 1.04 | relative viability (NCI-H1395; first compound 2 µM): 0.937 | relative viability (NCI-H1395; first compound 6.325 µM): 0.812 | relative viability (NCI-H1395; first compound 20 µM): 0.54 | relative viability (NCI-H650; first compound 0.2 µM): 1.02 | relative viability (NCI-H650; first compound 0.6325 µM): 0.946 | relative viability (NCI-H650; first compound 2 µM): 1.07 | relative viability (NCI-H650; first compound 6.325 µM): 0.939 | relative viability (NCI-H650; first compound 20 µM): 0.647 | relative viability (NCI-H2342; first compound 0.2 µM): 0.842 | relative viability (NCI-H2342; first compound 0.6325 µM): 0.903 | relative viability (NCI-H2342; first compound 2 µM): 0.787 | relative viability (NCI-H2342; first compound 6.325 µM): 0.716 | relative viability (NCI-H2342; first compound 20 µM): 1.1 | relative viability (HCC-366; first compound 0.2 µM): 0.321 | relative viability (HCC-366; first compound 2 µM): 0.3 | relative viability (HCC-366; first compound 6.325 µM): 0.0405 | relative viability (HCC-366; first compound 20 µM): 0.0273 | relative viability (EMC-BAC-2; first compound 0.2 µM): 0.889 | relative viability (EMC-BAC-2; first compound 0.6325 µM): 0.799 | relative viability (EMC-BAC-2; first compound 2 µM): 0.702 | relative viability (EMC-BAC-2; first compound 6.325 µM): 0.73 | relative viability (EMC-BAC-2; first compound 20 µM): 0.355 | relative viability (HCC-15; first compound 0.2 µM): 0.363 | relative viability (HCC-15; first compound 2 µM): 0.372 | relative viability (HCC-15; first compound 6.325 µM): 0.377 | relative viability (HCC-15; first compound 20 µM): 0.133 | relative viability (NCI-H1437; first compound 0.2 µM): 0.454 | relative viability (NCI-H1437; first compound 0.6325 µM): 0.475 | relative viability (NCI-H1437; first compound 2 µM): 0.456 | relative viability (NCI-H1437; first compound 6.325 µM): 0.239 | relative viability (NCI-H1437; first compound 20 µM): 0.237 | relative viability (SK-MES-1; first compound 0.2 µM): 0.569 | relative viability (SK-MES-1; first compound 0.6325 µM): 0.601 | relative viability (SK-MES-1; first compound 2 µM): 0.58 | relative viability (SK-MES-1; first compound 6.325 µM): 0.518 | relative viability (SK-MES-1; first compound 20 µM): 0.514 | relative viability (NCI-H23; first compound 0.2 µM): 0.407 | relative viability (NCI-H23; first compound 0.6325 µM): 0.342 | relative viability (NCI-H23; first compound 2 µM): 0.326 | relative viability (NCI-H23; first compound 6.325 µM): 0.312 | relative viability (NCI-H23; first compound 20 µM): 0.163 | relative viability (NCI-H2009; first compound 0.2 µM): 0.257 | relative viability (NCI-H2009; first compound 0.6325 µM): 0.261 | relative viability (NCI-H2009; first compound 2 µM): 0.27 | relative viability (NCI-H2009; first compound 6.325 µM): 0.208 | relative viability (NCI-H2009; first compound 20 µM): 0.329 | relative viability (COR-L 105; first compound 0.2 µM): 0.45 | relative viability (COR-L 105; first compound 0.6325 µM): 0.548 | relative viability (COR-L 105; first compound 2 µM): 0.44 | relative viability (COR-L 105; first compound 6.325 µM): 0.406 | relative viability (COR-L 105; first compound 20 µM): 0.439 | relative viability (NCI-H2347; first compound 0.2 µM): 0.309 | relative viability (NCI-H2347; first compound 0.6325 µM): 0.358 | relative viability (NCI-H2347; first compound 2 µM): 0.283 | relative viability (NCI-H2347; first compound 6.325 µM): 0.315 | relative viability (NCI-H2347; first compound 20 µM): 0.27 | relative viability (201T; first compound 0.2 µM): 0.704 | relative viability (201T; first compound 0.6325 µM): 0.701 | relative viability (201T; first compound 2 µM): 0.736 | relative viability (201T; first compound 6.325 µM): 0.605 | relative viability (201T; first compound 20 µM): 0.761 | relative viability (NCI-H1793; first compound 0.2 µM): 0.397 | relative viability (NCI-H1793; first compound 2 µM): 0.409 | relative viability (NCI-H1793; first compound 6.325 µM): 0.411 | relative viability (NCI-H1793; first compound 20 µM): 0.408
